Consider eight molecules from patent US6784164B2, “Choline binding proteins for anti-pneumococcal vaccines” (priority 1996, dated 2004).

One test has as its system S. pneumoniae. Description: Direct adherence of S. pneumoniae to wells coated with VCAM-1, fibronectin fragments, peptides or enolase. It counts as cell-based. Here is the method:
(§1) Fibronectin, its recombinant fragments, or rsVCAM were noncovalently immobilized through passive adsorption to 60 well Terasaki trays (wettable polystyrene [plasma treated], Robbins Scientific, Sunnyvale, Calif.). Briefly, substrates were reconstituted ([…]) in phosphate buffered saline (DPBS) and allowed to coat the Teresaki trays for 90 min at 37° C. […] Prior to use, the plates were washed five times with DPBS and excess liquid was removed from the wells.
(§2) Bacteria were labeled with fluorescein isothyocyanate as described [Geelen et al., Infect. Immun., 61:1538-1543 (1993)] and were resuspended in DPBS supplemented with 0.05% glucose and Ca^++ and Mg^++. Bacterial suspensions were brought to an A620 of 0.04, previously established to equal 1×10^7 cfu/ml of S. pneumoniae. 10 μl of bacteria were added to each well and incubated statically for 1 hour at 37° C. Unbound bacteria were eliminated by washing five times with DPBS. Bound bacteria were fixed to the surface by incubation with 2.5% glutaraldehyde solution for 3 minutes. Bacteria were counted visually with an inverted microscope (Nikon) equipped for fluorescence with an IF DM 510 filter. Binding was expressed as the number of attached bacteria per 0.25 mm^2 surface area. Values were corrected for non-specific binding by subtracting adherence to uncoated wells and are presented as the mean±standard deviation of at least 3 experiments with 3 to 6 wells/plate/experiment. For some experiments, binding was performed in the presence of rabbit polyclonal anti-pneumococcus R6 antibody or one of the following monoclonal antibodies: anti-choline (TEPC-15), anti-PspA Xi126 and XiR278 [McDaniel et al., Microb. Pathog., 13:261-9 (1992)]; anti-pneumococcal surface adhesin A PsaA [Sampson et al., Infect. Immun., 62:319-324 (1994)]; anti-VLA-4 (R & D Systems); and anti-VCAM-1 (R & D Systems). Alternatively, potential inhibition of pneumococcal binding was assessed in the presence of purified recombinant PspA or PsaA.

Test [1] concerns Adherence of S. pneumoniae to immobilized fibronectin. Type of test: cell-based. The settings on record: for inhibition of pneumococcal adherence to fibronectin: added to coated wells 15 min prior to bacteria. Here is the method:
as §1, §2

A short description of test [2]: Antigenicity: CBPs injected into rabbits, sera tested by Western blot. Further details: species or system rabbit. The protocol:
Vaccine candidates must be antigenic. The CBPs from choline agarose chromatography were injected into rabbits and sera tested for cross reactivity. Several proteins produced a strong signal. Prominent were CBPs 112, 90, 84 and 70, and 50 (FIGS. 1 and 2).
White rabbits were immunized by intradermal injection in the back with 500 μg purified CBPs in 1 ml of a 1:1 emulsion of buffer and Complete Freund's Adjuvant. The rabbits were boosted with a subcutaneous dorsal injection of 250 μg of purified CBPs in 1 ml of 1:1 buffer to Incomplete Freund's Adjuvant at weeks 3, 6, 9, 12, and 15. Rabbits were pre-bled, and test bled approximately 10 days prior to each boost. Serum obtained at week 16 were used in all experiments.
(§3) The CBPs were examined by SDS-PAGE and Western blot using the following antibodies: (1) polyclonal anti-pneumococcal serum (rabbit or “ROB”); (2) anti-PspA monoclonal antibody; (3) anti-FITC monoclonal antibody; (4) convalescent human anti-pneumococcal sera and (5) polyclonal anti-CBP antibody. 9 CBPs were identified on SDS-PAGE/Western blot.

Test [3] is described as follows: Western blot of CBPs with pooled human convalescent sera. The protocol: as §3
The CBPs were analyzed by 7.5% sodium dodecyl sulfate polyacrylamide gel electrophoresis (SDS-PAGE) and by Western blotting after electrophoretic transfer to an Immobilon-P transfer membrane (Millipore Corporation, Bedford, Mass.). For some experiments, pneumococci were labelled with fluorescein isothiocyanate (FITC) as described in the adherence assay. Western blot analysis was carried out with anti-FITC (Moleular Probes), anti-CBP or covalescent antisera each at a dilution of 1:1000. Bound antibody was detected with peroxidase conjugated goat anti-rabbit serum detected with the Chemiluminesce Kit from Amersham (Cambridge, Mass.). The convalescent sera was a mixture of sera pooled from five patients collected one month after recovery from bacteremia and pneumonia. The capsular serotypes of these infecting pneumococci were 3, 7, 14, 22, and 23.

Read-outs that look alike come from different tables or passages of the source. No end group written: not given here.

Take WQPPRARI [FN5]: the “direct adherence of S. pneumoniae to coated substrate (in words)” value in the test on S. pneumoniae is recorded as “able to support adherence”.

In the case of `C[N+](C)(C)CCO` [choline], the “decrease in binding of pneumococci to fibronectin” value in test [1] (preincubation of bacteria in 10% choline solution) was “greater than 50%”.

Consider `NCCCC[C@H](N)C(=O)O` [L-lysine], for which the “inhibition of pneumococcal adherence to fibronectin” value in test [1] (0.1 M) came to 67%; in test [1] (0.5M) it was 95%; in test [1] (1 M), 99%.

Turning to `NCCCCCC(=O)O` [6-amino hexanoic acid], in test [1], the “inhibition of pneumococcal adherence to fibronectin (in words)” value is “not able to inhibit adherence”.

On to “CBP84: pneumococcal choline binding protein, SEQ ID NO:3, 85% identical to Elongation Factor G (XREFSLEKTRNIGIMAHVDAGKT; X: residue not identified in the source)”, for which the “signal with sera of rabbits injected with CBPs” value in test [2] was “strong signal”.

B1: rsVCAM: recombinant soluble vascular cell adhesion molecule-1 (protein)
chain: FKIETTPESRYLAQIGDSVSLTCSTTGCESPFFSWRTQIDSPLNGKVTNEGTTSTLTMNPVSFGNEHSYLCTATCESRKLEKGIQVEIYSFPKDPEIHLSGPLEAGKPITVKCSVADVYPFDRLEIDLLKGDHLMKSQEFLEDADRKSLETKSLEVTFTPVIEDIGKVLVCRAKLHIDEMDSVPTVRQAVKELQVYISPKNTVISVNPSTKLQEGGSVTMTCSSEGLPAPEIFWSKKLDNGNLQHLSGNATLTLIAMRMEDSGIYVCEGVNLIGKNRKEVELIVQEKPFTVEISPGPRIAAQIGDSVMLTCSVMGCESPSFSWRTQIDSPLSGKVRSEGTNSTLTLSPVSFENEHSYLCTVTCGHKKLEKGIQVELYSFPRDPEIEMSGGLVNGSSVTVSCKVPSVYPLDRLEIELLKGETILENIEFLEDTDMKSLENKSLEMTFIPTIEDTGKALVCQAKLHIDDMEFEPKQRQSTQTLYVNVAPRDTTVLVSPSSILEEGSSVNMTCLSQGFPAPKILWSRQLPNGELQPLSENATLTLISTKMEDSGVYLCEGINQAGRSRKEVELIIQVTPKDIKLTAFPSESVKEGDTVIISCTCGNVPETWIILKKKAETGDTVLKSIDGAYTIRKAQLKDAGVYECESKNKVGSQLRSLTLDVQGRENNKDYFSPE
On to B1, for which the “inhibition of adherence of S. pneumoniae to fibronectin” value in test [1] (preincubation of the bacteria with the substance) was 96%. In the test on S. pneumoniae, the “density of S. pneumoniae adhering directly to coated wells” value amounted to 75±18 bacteria/0.25 mm ^2 and the “direct adherence as share of adherence to whole fibronectin” value was found to be 6%.

B2: CBP112: 112 kDa surface exposed pneumococcal choline binding protein, N-terminal SEQ ID NO:1 (protein)
chain: MMREIQLDRRKHTQNVALNIKLSAIKTKYLRELNVLEEKSKDELPSEIKAKLDAAFEKFKKDTLKPGEKVAEAKKKVEEAKKKAEDQKEEDRRNYPTNTYKTLELEIAEFDVKVKEAELELVKEEAKESRNEGTIKQAKEKVESKKAEATRLENIKTDRKKAEEEAKRKADAKLKEANVATSDQGKPKGRAKRGVPGELATPDKKENDAKSSDSSVGEETLPSSSLKSGKKVAEAEKKVEEAEKKAKDQKEEDRRNYPTNTYKTLDLEIAESDVKVKEAELELVKEEAKEPRDEEKIKQAKAKVESKKAEATRLENIKTDRKKAEEEAKRKAAEEDKVKEKPAEQPQPAPATQPEKPAPKPEKPAEQPKAEKTDDQQAEEDYARRSEEEYNRLTQQQPPKTEKPAQPSTPKTGWKQENGMWYFYNTDGSMATGWLQNNGSWYYLNANGAMATGWLQNNGSWYYLNANGSMATGWLQNNGSWYYLNANGAMATGWLQYNGSWYYLNSNGAMATGWLQYNGSWYYLNANGDMATGWLQNNGSWYYLNANGDMATGWLQYNGSWYYLNANGDMATGWVKDGDTWYYLEASGAMKASQWFKVSDKWYYVNGSGALAVNTTVDGYGVNANGEWVNZ
B2: the “signal with pooled human antisera from individuals recovering from pneumococcal disease” value in test [3] is “strong signal”. In test [2], the “signal with sera of rabbits injected with CBPs” value was “strong signal”.

B3: 2-phospho-D-glycerate hydrolyase (protein, UniProt P00924 2-437, looked up)
Enolase 1: AVSKVYARSVYDSRGNPTVEVELTTEKGVFRSIVPSGASTGVHEALEMRDGDKSKWMGKGVLHAVKNVNDVIAPAFVKANIDVKDQKAVDDFLISLDGTANKSKLGANAILGVSLAASRAAAAEKNVPLYKHLADLSKSKTSPYVLPVPFLNVLNGGSHAGGALALQEFMIAPTGAKTFAEALRIGSEVYHNLKSLTKKRYGASAGNVGDEGGVAPNIQTAEEALDLIVDAIKAAGHDGKIKIGLDCASSEFFKDGKYDLDFKNPNSDKSKWLTGPQLADLYHSLMKRYPIVSIEDPFAEDDWEAWSHFFKTAGIQIVADDLTVTNPKRIATAIEKKAADALLLKVNQIGTLSESIKAAQDSFAAGWGVMVSHRSGETEDTFIADLVVGLRTGQIKTGAPARSERLAKLNQLLRIEEELGDNAVFAGENFHHGDKL
notes: glycolytic enzyme enolase (Sigma), yeast
In the case of B3, in test [1] (1000 U/ml, added to fibronectin coated wells prior to bacteria), the “maximum inhibition of pneumococcal adherence to fibronectin” value came out at 98%. Also, in the test with S. pneumoniae, the “direct adherence of S. pneumoniae to coated substrate (in words)” value is “No direct adherence”.
